The record followed here is patent US20260216198A1, “GPR35 MODULATORS” (ThirtyFiveBio Limited, priority 2023, published 2026).

In the test the target is T1, GPR35 (Homo sapiens, UniProt Q9HC97).
T1 construct: expressed in transfected cells; host or cells: CHO-K1 cells co-expressing mitochondrial aequorin and Gα16
Put plainly: cellular GPR35 phospho-ERK HTRF assay (inhibition of lodoxamide-induced phospho-ERK signal). It is filed as cell-based. The settings on record: GPR35-CHO-K1-mt aequorin-Gα16 cell line; agonist lodoxamide at EC80; read-out: Activity Group (IC50, inhibition of GPR35 agonist-induced phospho-ERK signal). The text has this: The functional GPR35 assay as described in the accompanying examples measures the ability of GPR35 modulators to inhibit a GPR35 agonist-induced phospho-ERK signal. This is expressed as the concentration of modulator required to reduce the phospho-ERK signal by 50 percent, i.e. the IC50; the signal window being defined as the difference between agonist plus modulator vehicle (no modulator) and agonist vehicle (no agonist) controls.
The functional assay described measures the ability of GPR35 modulators to inhibit a GPR35 agonist-induced phospho-ERK signal. This is expressed as the concentration of modulator required to reduce the phospho-ERK signal by 50 percent, i.e. the IC50; the signal window being defined as the difference between agonist plus modulator vehicle (no modulator) and agonist vehicle (no agonist) controls.
This assay is a cellular GPR35 phospho-ERK homogeneous time resolved fluorescence (HTRF) assay using the GPR35-CHO-K1-mt aequorin-Gα16 cell line. Upon activation of GPR35 with the agonist lodoxamide at EC80 concentration, ERK 1/2 is phosphorylated, and after lysis of the cell membrane, phospho-ERK1/2 (Thr202/Tyr204) is detected in a sandwich assay using two different specific antibodies, one labelled with Eu^3+-cryptate (donor) and the second with d2 (acceptor). When the dyes are in proximity, the excitation of the donor with a light source (laser or flash lamp) triggers a Fluorescence Resonance Energy Transfer (FRET) towards the acceptor, resulting in specific acceptor fluorescence (at 665 nm). The specific signal is directly proportional to the amount of phospho-ERK1/2 (Thr202/Tyr204) in the sample. Compounds that interfere with the levels of phospho-ERK1/2 (Thr202/Tyr204) will result in a low HTRF signal.
For orientation: TR-FRET usually uses a lanthanide donor and a delayed reading to cut background.

T1 sequence (Q9HC97 whole entry): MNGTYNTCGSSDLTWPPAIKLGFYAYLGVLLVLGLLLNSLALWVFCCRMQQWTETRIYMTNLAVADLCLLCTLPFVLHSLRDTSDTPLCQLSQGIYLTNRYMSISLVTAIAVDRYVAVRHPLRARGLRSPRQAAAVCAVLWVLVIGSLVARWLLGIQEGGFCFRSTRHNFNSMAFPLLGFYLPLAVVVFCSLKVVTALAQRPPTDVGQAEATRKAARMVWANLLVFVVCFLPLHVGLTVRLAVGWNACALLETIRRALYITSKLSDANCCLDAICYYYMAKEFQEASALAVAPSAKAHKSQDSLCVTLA

Consider `COc1cccc(COCc2ccc(NC(=O)c3cccc(-c4cnc(C)c(C(=O)O)c4)c3)cc2F)c1` [Example 64, 5-[3-[[3-Fluoro-4-[(3-methoxyphenyl)methoxymethyl]phenyl]carbamoyl]phenyl]-2-methyl-pyridine-3-carboxylic acid], for which the IC50 (usually the point on the concentration scale where inhibition reaches its midpoint) is less than 1000 nM.
The value for `O=C(O)c1cnc(F)c(-c2cccc(C(=O)Nc3ccc(OCCc4ccccc4)cc3)c2)c1` [Example 65, 6-Fluoro-5-[3-[[4-(2-phenylethoxy)phenyl]carbamoyl]phenyl]pyridine-3-carboxylic acid] was less than 1000 nM.
The value for `O=C(O)c1cnc(O)c(-c2cccc(C(=O)Nc3ccc(OCCc4ccccc4)cc3)c2)c1` [Example 66, 6-Hydroxy-5-[3-[[4-(2-phenylethoxy)phenyl]carbamoyl]phenyl]pyridine-3-carboxylic acid] was 1000 to 10000 nM; that for `O=C(O)c1cnnc(-c2cccc(C(=O)Nc3ccc(COCc4ccccc4)cc3)c2)c1` [Example 67, 6-[3-[[4-(Benzyloxymethyl)phenyl]carbamoyl]phenyl]pyridazine-4-carboxylic acid] was less than 1000 nM.
The result for `Cc1ncc(-c2cccc(C(=O)Nc3ccc(COCc4ccccc4)cc3)c2)nc1C(=O)O` [Example 68, 6-[3-[[4-(Benzyloxymethyl)phenyl]carbamoyl]phenyl]-3-methyl-pyrazine-2-carboxylic acid] reads less than 1000 nM; that for `Cc1ncc(-c2cc(C(=O)Nc3ccc(OCCc4ccccc4)cc3)ncn2)cc1C(=O)O` [Example 69, 2-Methyl-5-[6-[[4-(2-phenylethoxy)phenyl]carbamoyl]pyrimidin-4-yl]pyridine-3-carboxylic acid], less than 1000 nM.
As for `Cc1ncc(-c2ccnc(C(=O)Nc3ccc(OCCc4ccccc4)cc3)c2)cc1C(=O)O` [Example 70, 2-Methyl-5-[2-[[4-(2-phenylethoxy)phenyl]carbamoyl]-4-pyridyl]pyridine-3-carboxylic acid], the IC50 was less than 1000 nM.
The value for `Cc1ncc(-c2cc(C(=O)Nc3ccc(OCCc4ccccc4)cc3)cnn2)cc1C(=O)O` [Example 71, 2-Methyl-5-[5-[[4-(2-phenylethoxy)phenyl]carbamoyl]pyridazin-3-yl]pyridine-3-carboxylic acid] was 1000 to 10000 nM; that for `Cc1ncc(-c2cc(C(=O)Nc3ccc(OCC4CC4)cc3)ccn2)cc1C(=O)O` [Example 72, 5-[4-[[4-(Cyclopropylmethoxy)phenyl]carbamoyl]-2-pyridyl]-2-methyl-pyridine-3-carboxylic acid] was 1000 to 10000 nM; that for `Cc1ncc(-c2cc(C(=O)Nc3ccc(OCC4CC4)cc3)c(F)cn2)cc1C(=O)O` [Example 73, 5-[4-[[4-(Cyclopropylmethoxy)phenyl]carbamoyl]-5-fluoro-2-pyridyl]-2-methyl-pyridine-3-carboxylic acid] was 1000 to 10000 nM.
The value for `Cc1ncc(-c2cc(C(=O)Nc3ccc(COCc4ccccc4)cc3)ccn2)cc1C(=O)O` [Example 74, 5-[4-[[4-(Benzyloxymethyl)phenyl]carbamoyl]-2-pyridyl]-2-methyl-pyridine-3-carboxylic acid] was less than 1000 nM; that for `Cc1cc(C(=O)Nc2ccc(COCc3ccccc3)cc2)cc(-c2cnc(C)c(C(=O)O)c2)n1` [Example 75, 5-[4-[[4-(Benzyloxymethyl)phenyl]carbamoyl]-6-methyl-2-pyridyl]-2-methyl-pyridine-3-carboxylic acid] was less than 1000 nM.
The result for `Cc1ncc(-c2cc(C(=O)Nc3ccc(COCc4ccccc4)cc3)c(F)cn2)cc1C(=O)O` [Example 76, 5-[4-[[4-(Benzyloxymethyl)phenyl]carbamoyl]-5-fluoro-2-pyridyl]-2-methyl-pyridine-3-carboxylic acid] reads less than 1000 nM.
As for `Cc1ncc(-c2cc(C(=O)Nc3ccc(COCc4ccccc4)c(F)c3)ccn2)cc1C(=O)O` [Example 77, 5-[4-[[4-(Benzyloxymethyl)-3-fluoro-phenyl]carbamoyl]-2-pyridyl]-2-methyl-pyridine-3-carboxylic acid], the IC50 was less than 1000 nM.
Turning to `Cc1ncc(-c2cc(C(=O)Nc3ccc(COC4CC4)c(F)c3)ccn2)cc1C(=O)O` [Example 78, 5-[4-[[4-(Cyclopropoxymethyl)-3-fluoro-phenyl]carbamoyl]-2-pyridyl]-2-methyl-pyridine-3-carboxylic acid], the IC50 fell in the range of 1000 to 10000 nM.
The result for `Cc1ncc(-c2cc(C(=O)Nc3ccc(OCC4CC4)c(F)c3)ccn2)cc1C(=O)O` [Example 79, 5-[4-[[4-(Cyclopropylmethoxy)-3-fluoro-phenyl]carbamoyl]-2-pyridyl]-2-methyl-pyridine-3-carboxylic acid] reads 1000 to 10000 nM.
The result for `COc1ccc(-c2cnc(C)c(C(=O)O)c2)cc1C(=O)Nc1ccc(COCc2ccccc2)cc1` [Example 80, 5-[3-[[4-(Benzyloxymethyl)phenyl]carbamoyl]-4-methoxy-phenyl]-2-methyl-pyridine-3-carboxylic acid] reads less than 1000 nM; that for `COc1ccc(C(=O)Nc2ccc(COCc3ccccc3)cc2)cc1-c1cnc(C)c(C(=O)O)c1` [Example 81, 5-[5-[[4-(Benzyloxymethyl)phenyl]carbamoyl]-2-methoxy-phenyl]-2-methyl-pyridine-3-carboxylic acid], less than 1000 nM; that for `Cc1ccc(-c2cnc(C)c(C(=O)O)c2)cc1C(=O)Nc1ccc(COCc2ccccc2)cc1` [Example 82, 5-[3-[[4-(Benzyloxymethyl)phenyl]carbamoyl]-4-methyl-phenyl]-2-methyl-pyridine-3-carboxylic acid], 1000 to 10000 nM.
The result for `Cc1ccc(C(=O)Nc2ccc(COCc3ccccc3)cc2)cc1-c1cnc(C)c(C(=O)O)c1` [Example 83, 5-[5-[[4-(Benzyloxymethyl)phenyl]carbamoyl]-2-methyl-phenyl]-2-methyl-pyridine-3-carboxylic acid] reads less than 1000 nM; that for `Cc1ncc(-c2ccc(F)c(C(=O)Nc3ccc(OCC4CC4)cc3)c2)cc1C(=O)O` [Example 84, 5-[3-[[4-(Cyclopropylmethoxy)phenyl]carbamoyl]-4-fluoro-phenyl]-2-methyl-pyridine-3-carboxylic acid], 1000 to 10000 nM.
`Cc1ncc(-c2cc(C(=O)Nc3ccc(COCc4ccccc4)cc3)ccc2F)cc1C(=O)O` [Example 85, 5-[5-[[4-(Benzyloxymethyl)phenyl]carbamoyl]-2-fluoro-phenyl]-2-methyl-pyridine-3-carboxylic acid]: the IC50 is less than 1000 nM.
The value for `Cc1ncc(-c2cccc(C(=O)Nc3ccc(COCc4ccccc4)cc3)c2F)cc1C(=O)O` [Example 86, 5-[3-[[4-(Benzyloxymethyl)phenyl]carbamoyl]-2-fluoro-phenyl]-2-methyl-pyridine-3-carboxylic acid] was 1000 to 10000 nM.
The result for `Cc1ncc(-c2ccc(F)c(C(=O)Nc3ccc(COCc4ccccc4)cc3)c2F)cc1C(=O)O` [Example 87, 5-[3-[[4-(Benzyloxymethyl)phenyl]carbamoyl]-2,4-difluoro-phenyl]-2-methyl-pyridine-3-carboxylic acid] reads 1000 to 10000 nM; that for `Cc1ncc(-c2ccc(F)c(C(=O)Nc3ccc(COCC4CC4)c(F)c3)c2)cc1C(=O)O` [Example 88, 5-[3-[[4-(Cyclopropylmethoxymethyl)-3-fluoro-phenyl]carbamoyl]-4-fluoro-phenyl]-2-methyl-pyridine-3-carboxylic acid], less than 1000 nM; that for `Cc1ncc(-c2ccc(F)c(C(=O)Nc3ccc(OCC4CC4)c(F)c3)c2)cc1C(=O)O` [Example 89, 5-[3-[[4-(Cyclopropylmethoxy)-3-fluoro-phenyl]carbamoyl]-4-fluoro-phenyl]-2-methyl-pyridine-3-carboxylic acid], less than 1000 nM.
The result for `Cc1ncc(-c2ccc(F)c(C(=O)Nc3ccc(COCc4ccccc4)c(F)c3)c2)cc1C(=O)O` [Example 90, 5-[3-[[4-(Benzyloxymethyl)-3-fluoro-phenyl]carbamoyl]-4-fluoro-phenyl]-2-methyl-pyridine-3-carboxylic acid] reads less than 1000 nM; that for `Cc1ncc(-c2ccc(F)c(C(=O)Nc3ccc(COC4CC4)c(F)c3)c2)cc1C(=O)O` [Example 91, 5-[3-[[4-(Cyclopropoxymethyl)-3-fluoro-phenyl]carbamoyl]-4-fluoro-phenyl]-2-methyl-pyridine-3-carboxylic acid], 1000 to 10000 nM.
In the case of `Cc1ncc(-c2ccc(F)c(C(=O)Nc3ccc(OC(C)C4CC4)c(F)c3)c2)cc1C(=O)O` (stereo not drawn) [Example 92, 5-[3-[[4-(1-Cyclopropylethoxy)-3-fluoro-phenyl]carbamoyl]-4-fluoro-phenyl]-2-methyl-pyridine-3-carboxylic acid], the IC50 was less than 1000 nM.
The result for `Cc1ncc(-c2ccc(F)c(C(=O)Nc3ccc(OC(C)C4CC4)c(C#N)c3)c2)cc1C(=O)O` (stereo not drawn) [Example 93, 5-[3-[[3-Cyano-4-(1-cyclopropylethoxy)phenyl]carbamoyl]-4-fluoro-phenyl]-2-methyl-pyridine-3-carboxylic acid] reads 1000 to 10000 nM.
